Experimental data: PMC7942396, “Drug Repurposing Screen for Compounds Inhibiting the Cytopathic Effect of SARS-CoV-2” (Frontiers in Pharmacology, 2021)
Counter-ions that a name gives are not always drawn. Like-named read-outs stand apart in the source and are kept apart here.

Experiments:
[1] = tested on: Vero E6 cells
[2] = tested on: SARS-CoV-2 (USA_WA1/2020); assay: microbe, parasite or virus in culture; assay type: cell-based; settings: for EC50: read-out: CPE EC50
[3] = cytotoxicity counter-assay, Vero E6 cells without virus
[4] = read-out: Cytotox CC50, cytotoxicity counter-assay, Vero E6 cells without virus
[5] = SARS-CoV-2 CPE assay, Vero E6 cells, confirmed anti-SARS-CoV-2 compounds
[6] = SARS-CoV-2 CPE assay, Vero E6 cells, efficacy
[7] = SARS-CoV-2 CPE assay, Vero E6 cells
[8] = Vero E6 cells without virus, 72 h
[9] = […], DMSO 0%, no-virus control 100%, hit confirmation

| Compound | % Cytotox [1, 3] [%] | CC50 [1, 4] [µM] | EC50 [2, 5] [µM] | CPE % Efficacy [2, 6] [%] | further results |
| --- | --- | --- | --- | --- | --- |
| CC(C)CCC[C@@H](C)[C@H]1CC[C@H]2[C@@H]3CC=C4C[C@@H](OC(=O)NCCN(C)C)CC[C@]4(C)[C@H]3CC[C@]12C.Cl | 37.0 | 10 | 11.2 | 40.5 |  |
| CN1CCN(C(=O)c2ccc(Nc3nccc(-c4cccs4)n3)cc2Cl)CC1 | 55.6 | 10 | 11.2 | 71.5 |  |
| 10058-F4 | 34.2 |  |  |  | CPE % Efficacy [2, 7]: 62.2%; EC50 [2, 7]: 12.6 µM |
| COC(=O)CC[C@@H](C)[C@H]1CC[C@H]2[C@@H]3CC[C@@H]4C[C@H](OC(C)=O)CC[C@]4(C)[C@H]3C[C@H](O)[C@]12C (racemic) | 0.0 |  |  |  | CPE % Efficacy [2, 7]: 62.5%; EC50 [2, 7]: 12.6 µM |
| COc1ccccc1N1CCN(CC[C@@](C)(C(=O)C2CCCCC2)c2ccccc2)CC1 [(R)-(-)-LY 426965 dihydrochloride, reference compound] |  |  |  |  | % Cytotox [1, 8]: <30%; CPE % Efficacy [2, 9]: 110.7%; EC50 [2]: 10 µM |
| COc1cccc(NC[C@@H](O)Cn2c3ccc(Br)cc3c3cc(Br)ccc32)c1 [(R)-P7C3-Ome] | 32.2 | 11.2 |  |  | CPE % Efficacy [2, 7]: 63.4%; EC50 [2, 7]: 12.6 µM |
| Nc1nc2c(c(N3CC[C@@H](N)C3)n1)CCCc1ccccc1-2 [A 943931] | 34.8 | 12.6 | 11.2 | 104.3 |  |
| Cc1c(NC(=O)OC[C@@H]2COCCN2)cn2ncnc(Nc3ccc4c(cnn4Cc4cccc(F)c4)c3)c12 [AC480 (BMS-599626)] | 67.2 | 12.6 | 11.2 | 62.3 |  |
| Nc1ncnc2c1c(-c1cccc(OCc3ccccc3)c1)cn2C1CC(CN2CCCC2)C1 (stereo not shown) [ADW-742] | 106.8 | 12.6 | 7.94 | 55.7 |  |
| CN1CCCCC1Cn1cc(C(=O)c2cc([N+](=O)[O-])ccc2I)c2ccccc21 (stereo not shown) [AM1241, reference compound] |  |  |  |  | % Cytotox [1, 8]: <30%; CPE % Efficacy [2, 9]: 97.6%; EC50 [2]: 10 µM |
| O=C1NC(=O)/C(=C/c2ccc3c(c2)OC(F)(F)O3)S1 [AS-604850] | 31.8 | 11.2 |  |  | CPE % Efficacy [2, 7]: 49.2%; EC50 [2, 7]: 12.6 µM |
| C[C@@H]1CN(CC(=O)N2CC(C)(C)c3ncc(Cc4ccc(F)cc4)cc32)[C@@H](CN2CCOC[C@H]2C)CN1 [AT-IAP] | 0.0 |  |  |  | CPE % Efficacy [2, 7]: 56.2% |
| Cl.Cl.Clc1ccccc1CNCC1CCC(CNCc2ccccc2Cl)CC1 (stereo not shown) [AY 9944 dihydrochloride] | 48.2 | 12.6 | 3.16 | 41.0 |  |
| CN1CCN(S(=O)(=O)c2ccc(-c3cnc(N)c(C(=O)Nc4cccnc4)n3)cc2)CC1 [AZD-2858] | 41.0 | 12.6 |  | 80.0 |  |
| O=c1[nH]c2ccccc2n1C1CCN(Cc2ccc(-c3nc4cc5nc[nH]c5cc4nc3-c3ccccc3)cc2)CC1 [Akt-I-1,2] | 34.2 | 12.6 |  |  | CPE % Efficacy [2, 7]: 91.3%; EC50 [2, 7]: 11.2 µM |
| CCCCCCCCCCCCCCCc1cccc(O)c1C(=O)O [Anacardic Acid] | 72.9 |  | 3.98 | 89.6 |  |
| C/C1=C/CCC2=CC(OC2=O)C(C)(C)/C=C\C1=O (stereo not shown) [Asteriscunolide D, reference compound] |  |  |  |  | % Cytotox [1, 8]: <30%; CPE % Efficacy [2, 9]: 93.3%; EC50 [2]: 10 µM |
| NC(=O)c1ccc2nc(-c3ccc(Oc4ccc(Cl)cc4)cc3)[nH]c2c1 [BML-277] | 33.9 |  |  | 73.6 |  |
| CC(C)c1cnn2c(NCc3ccccc3)cc(NCCCCCCN)nc12 [BS-181] | 32.0 |  | 10 | 83.4 |  |
| CO/C1=C\C(C)=C\[C@@H](C)[C@@H](O)[C@@H](C)C/C(C)=C/C=C/[C@H](OC)[C@@H]([C@@H](C)[C@@H](O)[C@H](C)[C@@]2(O)C[C@@H](O)[C@H](C)[C@@H](C(C)C)O2)OC1=O [Bafilomycin A1 from Streptomyces griseus] | 58.6 | 0.1 | 0.0113 | 69.3 |  |
| Cl.O=C1Nc2nc(-c3c(O)cccc3OCC3CC3)cc([C@@H]3CCCNC3)c2CO1 [Bay-65-1942 hydrochloride] | 23.5 | 11.2 |  |  | CPE % Efficacy [2, 7]: 53.9%; EC50 [2, 7]: 11.2 µM |
| COc1cc2c3cc1Oc1c(OC)c(OC)cc4c1[C@@H](Cc1ccc(O)c(c1)Oc1ccc(cc1)C[C@@H]3N(C)CC2)N(C)CC4 [Berbamine dihydrochloride] | 50.1 | 11.2 | 2.82 | 79.0 |  |
| C/C=C(/C)C(=O)O[C@H]1[C@@H]2[C@H](C)C(=O)O[C@@H]2C[C@@H](C)[C@@H]2C=CC(=O)[C@]21C [Brevelin A] | 59.7 | 11.2 | 3.55 | 61.5 |  |

| Compound | % Cytotox [1, 3] [%] | CC50 [1, 4] [µM] | EC50 [2, 5] [µM] | CPE % Efficacy [2, 6] [%] | further results |
| --- | --- | --- | --- | --- | --- |
| CC(C)(C)c1ccc(CN2CCN(C(c3ccccc3)c3ccc(Cl)cc3)CC2)cc1.Cl.Cl (stereo not shown) [Buclizine HCl] | 0.0 |  |  |  | CPE % Efficacy [2, 7]: 86.2%; EC50 [2, 7]: 14.1 µM |
| CCCCCCOc1ccc(C(=N)N(CCCC)CCCC)c2ccccc12.Cl [Bunamidine hydrochloride] | 109.2 | 11.2 | 4.47 | 84.9 |  |
| COc1cc2nc(N3CCC(N4CCCCC4)CC3)nc(NC3CCCCCC3)c2cc1OC.Cl.Cl [C 021 dihydrochloride] | 108.9 | 7.08 | 3.55 | 79.7 |  |
| O=C(NCc1ccccc1)[C@H](Cc1ccccc1)NC(=O)[C@H]1O[C@@H]1C(=O)NCCc1ccc(O)cc1 [CAA-0225, reference compound] |  |  |  |  | % Cytotox [1, 8]: <30%; CPE % Efficacy [2, 9]: 99.3%; EC50 [2]: 0.2 µM |
| Br.O=C(CN1C2=NCCN2c2ccccc21)c1ccc(-c2ccccc2)cc1 [CCT 031374 hydrobromide] | 33.8 | 12.6 | 7.94 | 63.4 |  |
| CCc1cc(-c2n[nH]c(C)c2-c2ccc3c(c2)OCCO3)c(O)cc1O [CCT-018159] | 34.2 |  |  |  | CPE % Efficacy [2, 7]: 74.6%; EC50 [2, 7]: 14.1 µM |
| Cn1cc(-c2ccc(-c3cncc(Cl)c3N3CCC4(CCNC4=O)CC3)cc2)cn1 [CCT-251545] | 0.0 |  |  |  | CPE % Efficacy [2, 7]: 65.2%; EC50 [2, 7]: 14.1 µM |
| Cn1ncc2cc(-c3cnc(N)c(Cl)c3N3CCC4(CCNC4=O)CC3)ccc21 [CCT-251921] | 39.8 |  | 2.82 | 87.9 |  |
| Cc1c(CCOc2ccc(C(=O)O)cc2)c2cc(Cl)ccc2n1C(c1ccccc1)c1ccccc1 [CDIBA] | 77.1 | 12.6 |  |  | CPE % Efficacy [2, 7]: 52.2%; EC50 [2, 7]: 14.1 µM |
| OCCCNc1cc(-c2ccnc(Nc3cccc(Cl)c3)n2)ccn1 [CGP-60474] |  |  |  |  | % Cytotox [1]: 61.3%; CC50 [1]: 0.11 µM; CPE % Efficacy [2]: 104.5%; EC50 [2]: 6.31 µM |
| Cc1ccc(-c2c(C(=O)CCl)n(CCCO)c3ncnc(N)c23)cc1 [CMK] | 15.2 |  |  |  | CPE % Efficacy [2, 7]: 38.9%; EC50 [2, 7]: 12.6 µM |
| CCN(CC)Cc1cccc(/C=C/c2nc3ccc(F)cc3c(=O)n2-c2ccccc2Cl)n1.Cl [CP 465022 hydrochloride] | 47.9 | 12.6 | 10 | 77.3 |  |
| COc1cc2nc(-c3ccc(N4CCN(C)CC4)cc3)nc(NCCN3CCOCC3)c2cc1OC [CPG-52364] | 41.6 | 10 | 11.2 | 63.1 |  |
| Cc1nc(C)c(CN2CCN(C(c3ccc(F)cc3)c3ccc(F)cc3)CC2)nc1C [CXC-195] | 0.0 |  |  |  | CPE % Efficacy [2, 7]: 32.4%; EC50 [2, 7]: 12.6 µM |
| Cc1cc(CN)cc(C)c1NC(=O)c1ccc(-c2cc(Cl)ccc2Cl)o1 [CYM50358] | 52.7 |  | 4.47 | 34.9 |  |
| CCOc1ccc(-c2nc(-c3cccc4c3CCC4NCCO)no2)cc1OCC.Cl (stereo not shown) [CYM 5442 hydrochloride] | 0.0 |  | 11.2 | 134.3 |  |
| CN(C)S(=O)(=O)c1ccc(NC(=S)N2CCC(C(O)(c3ccccc3)c3ccccc3)CC2)cc1 [CYM 9484] | 13.8 | 19.9 | 11.2 | 30.8 |  |
| CCCCCCCc1ccc(CCc2cccc(O)c2C(=O)O)cc1 [MG-149] | 23.4 |  |  |  |  |
| CCC(C)CNCC(=O)N1CCc2sccc2C1COc1cccc(C)c1.Cl (stereo not shown) [RU-SKI 43 (hydrochloride)] | 21.4 | 8.91 |  |  |  |
| CN(C)CCCN1c2ccccc2Sc2ccc(C(F)(F)F)cc21 [Triflupromazine hydrochloride] |  |  |  |  | EC50 ([2]; Severe acute respiratory syndrome coronavirus 2, Vero C1008, SARS-CoV-2 CPE assay, Vero E6 cells, confirmed anti-SARS-CoV-2 compounds): 10 µM; Emax ([2]; Severe acute respiratory syndrome coronavirus 2, Vero C1008, SARS-CoV-2 CPE assay, Vero E6 cells, efficacy, read-out: CPE % Efficacy): 77.3% |
| CN(C)C(=O)COC(=O)Cc1ccc(OC(=O)c2ccc(NC(=N)N)cc2)cc1 [camostat, reference compound] |  |  |  |  | Activity in the Vero E6 assay [2]: not active |
| N=C(N)Nc1ccc(C(=O)Oc2ccc3cc(C(=N)N)ccc3c2)cc1 [nafamstat, reference compound] |  |  |  |  | Activity in the Vero E6 assay [2]: not active |
| Oligomycin A |  |  | 3.98 | 104.5 |  |
